Reference: the NIST ThermoML archive (doi:10.1016/j.jct.2006.05.008)
Numbers after ± are expanded uncertainties.

Assay: molar heat capacity at constant pressure
Conditions: 101.33 kPa, Small (less than 1 g) adiabatic calorimetry

CCCCn1cc[n+](C)c1.[Br-] [1-butyl-3-methylimidazolium bromide]
Conditions | molar heat capacity at constant pressure [J/K/mol]
210 K, Crystal | 179.9 ± 0.92
210.34 K, Crystal | 180.27 ± 0.92
211.54 K, Glass | 201.34 ± 1
212.44 K, Crystal | 181.75 ± 0.93
213.66 K, Glass | 205.71 ± 1
214.52 K, Crystal | 183.24 ± 0.93
215.75 K, Glass | 211.67 ± 1
216.61 K, Crystal | 184.62 ± 0.94
217.78 K, Glass | 223.22 ± 1.1
218.7 K, Crystal | 186.06 ± 0.94
219.71 K, Glass | 249.71 ± 1.2
220 K, Crystal | 186.6 ± 0.92
220.79 K, Crystal | 187.32 ± 0.95
222.88 K, Crystal | 188.66 ± 0.96
224.97 K, Crystal | 190.05 ± 0.96
225.62 K, Liquid | 289.04 ± 1.4
227.06 K, Crystal | 191.53 ± 0.97
227.7 K, Liquid | 289.5 ± 1.4
229.15 K, Crystal | 192.85 ± 0.97
229.79 K, Liquid | 290.01 ± 1.4
230 K, Crystal | 193.1 ± 1
231.24 K, Crystal | 194.13 ± 0.98
231.89 K, Liquid | 290.69 ± 1.4
233.34 K, Crystal | 195.6 ± 0.98
233.98 K, Liquid | 291.24 ± 1.4
235.43 K, Crystal | 196.86 ± 0.99
236.07 K, Liquid | 291.65 ± 1.4
237.53 K, Crystal | 198 ± 0.99
238.17 K, Liquid | 292.05 ± 1.4
239.63 K, Crystal | 199.44 ± 1
240 K, Crystal | 199.5 ± 1
240.26 K, Liquid | 292.64 ± 1.4
241.72 K, Crystal | 200.93 ± 1
242.35 K, Liquid | 293.21 ± 1.4
243.82 K, Crystal | 202.36 ± 1
244.44 K, Liquid | 293.89 ± 1.4
245.93 K, Crystal | 203.67 ± 1
246.54 K, Liquid | 294.81 ± 1.4
248.03 K, Crystal | 205.09 ± 1
248.64 K, Liquid | 295.35 ± 1.4
250 K, Crystal | 206.2 ± 1
250.12 K, Crystal | 206.58 ± 1
250.73 K, Liquid | 296.1 ± 1.4
252.22 K, Crystal | 208.01 ± 1
252.83 K, Liquid | 296.76 ± 1.4
254.32 K, Crystal | 209.53 ± 1
256.43 K, Crystal | 211.04 ± 1
258.53 K, Crystal | 212.45 ± 1
260 K, Crystal | 213.2 ± 1.1
260.63 K, Crystal | 213.97 ± 1.1
262.74 K, Crystal | 215.49 ± 1.1
264.84 K, Crystal | 217.16 ± 1.1
266.93 K, Crystal | 218.74 ± 1.1
269.03 K, Crystal | 220.2 ± 1.1
270 K, Crystal | 220.8 ± 1.1
271.12 K, Crystal | 222.15 ± 1.1
273.22 K, Crystal | 223.99 ± 1.1
275.33 K, Crystal | 225.35 ± 1.1
277.43 K, Crystal | 227.05 ± 1.1
279.55 K, Crystal | 228.43 ± 1.1
280 K, Crystal | 228.4 ± 1.1
281.65 K, Crystal | 230.01 ± 1.1
283.76 K, Crystal | 231.57 ± 1.1
285.86 K, Crystal | 232.75 ± 1.1
287.97 K, Crystal | 234.48 ± 1.1
290 K, Crystal | 235.8 ± 1.2
290.08 K, Crystal | 236.13 ± 1.1
292.19 K, Crystal | 237.64 ± 1.2
294.31 K, Crystal | 239.37 ± 1.2
296.42 K, Crystal | 241.14 ± 1.2
298.15 K, Crystal | 241.8 ± 1.2
298.54 K, Crystal | 243.38 ± 1.2
300 K, Crystal | 243.1 ± 1.2
300.66 K, Crystal | 245.13 ± 1.2
302.78 K, Crystal | 247.98 ± 1.2
304.91 K, Crystal | 249.78 ± 1.2
308.84 K, Crystal | 254.23 ± 1.2
310 K, Crystal | 250.4 ± 1.2
312.32 K, Crystal | 258.72 ± 1.2
314.44 K, Crystal | 261.85 ± 1.2
320 K, Crystal | 257.8 ± 1.2
330 K, Crystal | 265.1 ± 1.2
340 K, Crystal | 272.5 ± 1.3
350 K, Crystal | 279.8 ± 1.3
351.35 K, Crystal | 280.8 ± 1.3
351.35 K, Liquid | 332.6 ± 1.5
355.98 K, Liquid | 334.82 ± 1.5
359.86 K, Liquid | 336.11 ± 1.5
360 K, Liquid | 336.3 ± 1.6
362.1 K, Liquid | 338.41 ± 1.6
364.36 K, Liquid | 339.33 ± 1.6
366.64 K, Liquid | 339.84 ± 1.6
370 K, Liquid | 340.9 ± 1.6
